Earlier results in patent US7892838B2, “Method for the in vivo modification of the synthesis activity of a metabolite by means of the modification of a gene the activity of which is not the original activity” (Institut Pasteur, priority 2003, dated 2011).

Test system: HIV (human immunodeficiency virus)

| SMILES | inhibition of the replication of HIV |
| --- | --- |
| Nc1ncnc2c1ncn2[C@H]1CC[C@@H](CO)O1 [ddA, 2′,3′-dideoxyadenosine] | effectively inhibit the replication of HIV |
| OC[C@@H]1CC[C@H](n2cnc3c(O)ncnc32)O1 [ddI, 2′,3′-dideoxyinosine] | effectively inhibit the replication of HIV |
